Test results reported in ChEMBL document CHEMBL1130788, “Synthesis and antitumor activity of leinamycin derivatives: modifications of C-8 hydroxy and C-9 keto groups” (Bioorg Med Chem Lett, 1998).

Key:
P388 [1] = test: In vivo antitumor activity of compound was tested as maximal increase in life span (ILSmax) against lymphocytic leukemia P388 in mice; assay type: functional, Mus musculus
P388 [2] = test: Compound was tested in vivo for antitumor activity against lymphocytic leukemia P388 in mice; assay type: functional, Mus musculus
HeLa = test: In vitro antiproliferative activity against human uterine carcinoma HeLa S3 cells.; assay type: functional, cell-based

SMILES	ILSmax (P388 [1]) [%]	Optimal dose (P388 [2]) [mg/kg]	IC50 (HeLa; hela) [nM]	IC50 (HeLa; Homo sapiens, HeLa) [nM]
C/C1=C\[C@@H](O)C(=N/OCc2ccccc2)/C=C/C=C\c2csc(n2)[C@@H](C)NC(=O)C[C@@]2(CC1)[S+]([O-])SC(=O)[C@]2(C)O (stereo in doubt; 9c-1)	29	8	110	
COC1(OC)/C=C/C=C\c2csc(n2)[C@@H](C)NC(=O)C[C@@]2(CC/C(C)=C/[C@H]1O)[S+]([O-])SC(=O)[C@]2(C)O (stereo partly drawn)				> 10000
CCOC(=O)O[C@@H]1/C=C(\C)CC[C@]2(CC(=O)N[C@H](C)c3nc(cs3)/C=C\C=C\C1=O)[S+]([O-])SC(=O)[C@]2(C)O (stereo partly drawn)	31	2		1.4
C/C1=C\[C@@H](O)C(=N/OCc2ccccc2)/C=C/C=C\c2csc(n2)[C@@H](C)NC(=O)C[C@@]2(CC1)[S+]([O-])SC(=O)[C@]2(C)O (stereo in doubt; 9c-2)	31	2	9.5	
C/C1=C\[C@@H](OC(=O)Oc2ccc([N+](=O)[O-])cc2)C(=O)/C=C/C=C\c2csc(n2)[C@@H](C)NC(=O)C[C@@]2(CC1)[S+]([O-])SC(=O)[C@]2(C)O (stereo partly drawn)	57	2		22
CO\N=C1/C=C/C=C\c2csc(n2)[C@@H](C)NC(=O)C[C@@]2(CC/C(C)=C/[C@H]1O)[S+]([O-])SC(=O)[C@]2(C)O (stereo in doubt; 9b-1)			67	
C/C1=C\[C@@H](O)C(O)/C=C/C=C\c2csc(n2)[C@@H](C)NC(=O)C[C@@]2(CC1)[S+]([O-])SC(=O)[C@]2(C)O (stereo in doubt; 7-1)			6200	
C/C1=C\[C@@H](O)C(O)/C=C/C=C\c2csc(n2)[C@@H](C)NC(=O)C[C@@]2(CC1)[S+]([O-])SC(=O)[C@]2(C)O (stereo in doubt; 7-2)				4900
C/C1=C\[C@@H](OC(=O)C2CCCCC2)C(=O)/C=C/C=C\c2csc(n2)[C@@H](C)NC(=O)C[C@@]2(CC1)[S+]([O-])SC(=O)[C@]2(C)O (stereo partly drawn)	49	4		58
C/C1=C\[C@@H](OC(=O)N2CCCCC2)C(=O)/C=C/C=C\c2csc(n2)[C@@H](C)NC(=O)C[C@@]2(CC1)[S+]([O-])SC(=O)[C@]2(C)O (stereo partly drawn)				180
C/C1=C\[C@@H](O)C(=O)/C=C/C=C\c2csc(n2)[C@@H](C)NC(=O)C[C@@]2(CC1)[S+]([O-])SC(=O)[C@]2(C)O (stereo partly drawn) [LEINAMYCIN]	57	0.38		11
CCCCCCCCCCCCCCCC(=O)O[C@@H]1/C=C(\C)CC[C@]2(CC(=O)N[C@H](C)c3nc(cs3)/C=C\C=C\C1=O)[S+]([O-])SC(=O)[C@]2(C)O (stereo partly drawn)	37	16		7700
COC1(O[C@@H]2/C=C(\C)CC[C@]3(CC(=O)N[C@H](C)c4nc(cs4)/C=C\C=C\C2=O)[S+]([O-])SC(=O)[C@]3(C)O)CCOCC1 (stereo partly drawn)	35	2		18
C/C1=C\[C@@H](O)C(=N/O)/C=C/C=C\c2csc(n2)[C@@H](C)NC(=O)C[C@@]2(CC1)[S+]([O-])SC(=O)[C@]2(C)O (stereo partly drawn)				910
C/C1=C\[C@@H](OC2CCCCO2)C(=O)/C=C/C=C\c2csc(n2)[C@@H](C)NC(=O)C[C@@]2(CC1)[S+]([O-])SC(=O)[C@]2(C)O (stereo partly drawn)	28	0.13		1.3
C/C1=C\[C@@H](OC(=O)c2cnc3ccccc3n2)C(=O)/C=C/C=C\c2csc(n2)[C@@H](C)NC(=O)C[C@@]2(CC1)[S+]([O-])SC(=O)[C@]2(C)O (stereo partly drawn)	44	2		6.8
CC(=O)O[C@@H]1/C=C(\C)CC[C@]2(CC(=O)N[C@H](C)c3nc(cs3)/C=C\C=C\C1=O)[S+]([O-])SC(=O)[C@]2(C)O (stereo partly drawn)	34	1		10
C/C1=C\[C@@H](OC(=O)c2ccccc2)C(=O)/C=C/C=C\c2csc(n2)[C@@H](C)NC(=O)C[C@@]2(CC1)[S+]([O-])SC(=O)[C@]2(C)O (stereo partly drawn)	36	2		130
CO\N=C1/C=C/C=C\c2csc(n2)[C@@H](C)NC(=O)C[C@@]2(CC/C(C)=C/[C@H]1O)[S+]([O-])SC(=O)[C@]2(C)O (stereo in doubt; 9b-2)	21	2		110
CC(=O)O[C@@H]1/C=C(\C)CC[C@]2(CC(=O)N[C@H](C)c3nc(cs3)/C=C\C=C\C1=O)[S+]([O-])SC(=O)[C@]2(C)OC(C)=O (stereo partly drawn)	15	2		780
